# How the values were obtained:
# [1] = tested on: P. aeruginosa, PAM1723, overexpressing the MexAB-OprM efflux pump; experiment: Levofloxacin potentiation checkerboard assay (broth microdilution); type: cell-based
# Method: Stock solution was stored at −80° C.
# The checkerboard assay was performed in microtiter plates. […] EPIs were diluted in the y axis, each row containing an equal concentration of an EPI. The result of these manipulations was that each well of the microtiter plate contains a unique combination of concentrations of the two agents. The assay was performed in MHB with a final bacterial inoculum of 5×10^5 CFU/ml (from an early-log phase culture). Microtiter plates were incubated during 20 h at 35° C. and were read using a microtiterplate reader (Molecular Devices) at 650 nm as well as visual observation using a microtiter plate-reading mirror.
# [2] = In vitro stability in rat serum and tissue homogenates (LC/MS/MS); type: in vitro ADME
# Method: To test the stability of the compounds in vitro, samples were prepared and analyzed by LC/MS/MS according to the following procedure.
# Homogenization: A chunk of fresh tissue was weighed and mixed with saline at 1:1 ratio (w/v) in a 12×75 mm polypropylene round bottom tube. The mixture was homogenized with a Polytron homogenizer (on ice, 3×10 seconds with 10 second intervals at the setting of 7).
# Incubation and TCA-precipitation: An appropriate amount of a tissue homogenate was pre-warmed at 37° C. for 2 minutes in an Eppendorf tube. The compound to be tested was added to the tube to a final concentration of 2 μg/ml, mixed, and a 60 μl aliquot was immediately taken (as 0 hour sample) and mixed with 120 μl of 4% TCA (trichloroacetic acid) in an Eppendorf tube. The temperature of the tube containing the rest of the tissue sample was returned to 37° C. for incubation. Later, samples were taken as scheduled and mixed with TCA as described above. Plasma and lavage samples were directly incubated with the compounds without addition of saline and homogenization.
# LC/MS/MS sample vial preparation: TCA-precipitated sample tubes were vortexed for 30 seconds, centrifuged in a microfuge at top speed (13.2 k rpm) for 5 minutes. The supernatant was collected. The pH was neutralized to about 3.5 with ammonium acetate buffer. The sample (45 μl) was transferred to a glass LC/MS/MS vial (Kimble, 11 mm, 1.5 ml) and 5 μl of an internal standard was added to a final concentration of 500 ng/ml. LC/MS/MS analysis was performed in Chemistry Department of San Diego State University.
# LC/MS/MS protocol: Thermo-Finnigan TSQ Quantum triple sector mass spectrometer with electrospray (ESI) ionization was used to analyze the samples. The operation conditions were: Mobile phase of pH 3.00 water/formic acid: acetonitrile-methanol (45%:5%:50% by volume); Thermo-Keystone Betabasic C-18 column (2.1 mm×50 mm) operated at 0.100 mL/min.
# Many proteases responsible for degrading EPI compounds are located in […]. Lysozymes typically have an acidic pH (about 4.8-5), whereas the pH in tissue homogenates that were prepared was higher (kidney, pH 6.8; liver, pH 6.6; and lung, pH 7.5). To test the effect of tissue homogenates closer to physiological conditions, the pH was lowered to about 6 by adding acetic acid to the tissue homogenates and compound stability was tested. FIG. 2 depicts the stability of compounds 1 and 3 at different pH. […] The pH-dependent degradation of compound 3 was especially evident in kidney homogenates.
# FIG. 4 is a bar graph depicting the stability of compound 3 in the supernatant and pellet of kidney tissue homogenates.
# [3] = Rat serum pharmacokinetics after IV bolus administration; type: in vivo; settings: in words
# Method: Rat serum pharmacokinetics of compounds 1, 2, 3 and 4 was evaluated after IV bolus administration (FIG. 11). FIG. 11 depicts the serum concentrations as a function of time.
# [4] = Tissue levels in rat six-hour after 8.4 mg/kg IV bolus; type: in vivo; settings: rat kidney, liver and lung; 8.4 mg/kg IV bolus; in words
# Method: Tissue levels of compounds 1, 2, 3 and 4 were evaluated in kidney, liver and lung six-hour after 8.4 mg/kg IV bolus administration. FIG. 13 depicts the levels as a function of time.
# Compound 67, which is the expected metabolite of proteolytic intracellular degradation of compound 3, was detected in rat tissues after IV infusion, confirming the tissue-specific degradation of compound 3 (Tables 9A, B).
# [5] = tested on: laboratory strains of P. aeruginosa; experiment: Tigecycline susceptibility of laboratory strains of P. aeruginosa over-expressing or lacking efflux pumps; type: cell-based; settings: compared to the wild-type strain PAM1020
# Method: (§1) The ability of compound 21 to increase susceptibility to tigecycline was also assessed. The tigecycline potentiating activity of compound 21 was assessed by the checkerboard assay (Antimicrobial Combinations, Antibiotics in Laboratory Medicine, ed. Victor Lorian, M.D., Fourth edition, 1996, pp 333-338, which is incorporated herein by reference in its entirety) using a broth micro-dilution method performed as recommended by the CSLI (Clinical and Laboratory Standards Institute, formerly NCCLS) guidelines (National Committee for Clinical Laboratory Standards 2003. Methods for Dilution Antimicrobial Susceptibility Tests for Bacteria That Grow Aerobically—Sixth Edition; Approved Standard. NCCLS Document M7-A6, Vol 20 No. 2). In this assay, multiple dilutions of the two drugs, compound 21 and tigecycline, were tested alone and in combination, at concentrations equal to, above and below their respective minimal inhibitory concentrations (MICs). […] The stock solution was further diluted in Mueller Hinton Broth (MHB). Stock solutions were stored at −80° C.
# (§2) The checkerboard assay was performed in microtiter plates. Tigecycline was diluted in the x axis, each column containing a single concentration of tigecycline. Compound 21 was diluted in the y axis, each row containing an equal concentration of the EPI. […] The assay was performed in MHB with a final bacterial inoculum of 5×10^5 CFU/ml (from an early-log phase culture). The microtiter plates were incubated for 20 hours at 35° C. and then read using a microtiter plate reader (Molecular Devices) at 650 nm, as well as by visual observation using a microtiter plate-reading mirror.
# [6] = tested on: PAM 1020, wt; experiment: Tigecycline potentiation checkerboard assay, PAM 1020; type: cell-based, P. aeruginosa; settings: Pseudomonas aeruginosa, read-out: Tigecycline MIC in the presence of Compound 21
# Method: as §1, §2
# [7] = tested on: PAM 1032, nalB, MexAB-OprM over-expressed; experiment: microbe, parasite or virus in culture; type: cell-based, P. aeruginosa
# Method: as §1, §2
# (§3) P. aeruginosa strain PAM 1032 was grown in Mueller-Hinton Broth (MHB) at 35° C. under constant aeration. After 20 hours, the inoculum was sub-cultured into fresh MHB and allowed to regrow at 35° C., under constant aeration, for 4 hours. The inoculum was adjusted to ca. 4×10^7 CFU/ml by correlation of absorbance at 600 nm with predetermined plate counts. The inoculum was then diluted 2-fold in 14% hog-gastric mucin (Sigma, St. Louis, Mo.) for a final inoculum concentration of 2×10^7 CFU/ml. […] At 0 and 2 hours following infection, tigecycline was administered by the subcutaneous route and compound 21 was administered by the intraperitoneal route.
# [8] = tested on: PAM 1323, mexZ, MexXY-OprM over-expressed, MexAB-OprM low level; experiment: microbe, parasite or virus in culture; type: cell-based, P. aeruginosa; settings: Pseudomonas aeruginosa, read-out: Tigecycline MIC in the presence of Compound 21
# Method: as §1, §2
# [9] = tested on: PAM 1723, MexAB-OprM over-expressed, ΔMexCD-OprJ ΔMexEF-OprN; experiment: microbe, parasite or virus in culture; type: cell-based, P. aeruginosa; settings: Pseudomonas aeruginosa, read-out: Tigecycline MIC in the presence of Compound 21
# Method: as §1, §2
# [10] = tested on: PAM 1738, MexCD-OprJ over-expressed, ΔMexAB-OprM ΔMexEF-OprN; experiment: microbe, parasite or virus in culture; type: cell-based, P. aeruginosa; settings: Pseudomonas aeruginosa, read-out: Tigecycline MIC in the presence of Compound 21
# Method: as §1, §2
# [11] = tested on: PAM 2466, mexR1, MexAB-OprM and MexXY-OprM over-expressed; experiment: microbe, parasite or virus in culture; type: cell-based, P. aeruginosa; settings: Pseudomonas aeruginosa, read-out: Tigecycline MIC in the presence of Compound 21
# Method: as §1, §2
# [12] = tested on: PAM 1753, MexEF-OprN over-expressed; experiment: Tigecycline potentiation checkerboard assay, PAM 1753; type: cell-based, P. aeruginosa; settings: Pseudomonas aeruginosa, read-out: Tigecycline MIC in the presence of Compound 21
# Method: as §1, §2
# [13] = tested on: PAM 1626, Four pumps non-functional; experiment: Tigecycline potentiation checkerboard assay, PAM 1626; type: cell-based, P. aeruginosa; settings: Pseudomonas aeruginosa, read-out: Tigecycline MIC in the presence of Compound 21
# Method: as §1, §2
# [14] = tested on: 110 clinical isolates of P. aeruginosa; experiment: Tigecycline susceptibility of P. aeruginosa clinical isolates with fixed concentration of compound 21; type: cell-based; settings: tigecycline alone; 110 clinical isolates
# Method: (§4) To further characterize the clinical potential of tigecycline/EPI combinations, the microbiological activity of tigecycline in combination with compound 21 was investigated using clinical isolates of P. aeruginosa and other gram-negative bacteria. In several experiments, described below, the impact of a fixed concentration of compound 21 (2.5 μg/ml) on susceptibility to tigecycline was determined.
# Results from an experiment using 110 clinical isolates of P. aeruginosa are presented in FIG. 1, as the distribution of tigecycline MICs with or without the EPI potentiator.
# [15] = tested on: Enterobacter aerogenes 19; experiment: Antibiotic MIC with fixed concentration of compound 21, Enterobacter aerogenes 19; type: cell-based; settings: tigecycline alone
# [16] = tested on: Enterobacter cloacae 25; experiment: Antibiotic MIC with fixed concentration of compound 21, Enterobacter cloacae 25; type: cell-based; settings: tigecycline alone
# [17] = tested on: Klebsiella pneumonia 73; experiment: Antibiotic MIC with fixed concentration of compound 21, Klebsiella pneumonia 73; type: cell-based; settings: tigecycline alone
# Method: as §4
# (§5) The impact of compound 21 on the activity of tigecycline against representative members of Enterobacteriacaea was also tested.
# [18] = tested on: Klebsiella pneumonia 79; experiment: Antibiotic MIC with fixed concentration of compound 21, Klebsiella pneumonia 79; type: cell-based; settings: tigecycline alone
# Method: as §4, §5
# [19] = tested on: Citrobacter freundii 13; experiment: Antibiotic MIC with fixed concentration of compound 21, Citrobacter freundii 13; type: cell-based; settings: tigecycline alone
# Method: as §4, §5
# [20] = tested on: Strain S41, a clinical isolate; experiment: microbe, parasite or virus in culture; type: cell-based, P. aeruginosa
# [21] = tested on: P. aeruginosa strain PAM 1032; experiment: Mouse model of P. aeruginosa sepsis infection (tigecycline 50% effective dose); type: in vivo; settings: mice, tigecycline SC at 0 and 2 hours; Reed and Meunch
# Method: Tigecycline and compound 21 were prepared in sterile 0.9% saline. Seventy Swiss-Webster mice (Harlan laboratories) with body weights ranging from 22 to 25 grams at the start of the study were used. Upon receipt, the animals were housed 5 per cage in a room with a controlled environment and were acclimated to laboratory conditions for at least 24 hours prior to the start of dosing. Animals were provided food and water ad libitum. The health status of the animals was determined during the acclimation period and unhealthy animals were not placed on study. Each animal was identified by marking their tails with indelible ink and each cage was identified by animal, group, and study number.
# as §3, with “route. […] The susceptibility of the test strain (P. aeruginosa PAM1032, […] MexAB-OprM) to tigecycline was 4 ug/ml, the susceptibility of the test strain to tigecycline in the presence of 2.5 μg/mL of compound 21 was 0.25 μg/mL.” for “route.”
# [22] = tested on: Klebsiella pneumonia; settings: cited from earlier work
smiles,measurement,setting,value
"NCCC[C@H](N)C(=O)N[C@@H](CCc1ccccc1)C(=O)Nc1cnc2ccccc2c1 [Compound 2, 2-(S),5-Diamino-pentanoic acid [3-phenyl-1-(S)-(quinolin-3-ylcarbamoyl)-propyl]-amide]",Antibiotic (levofloxacin) MIC in the presence of EPI,[1]; EPI 0 μg/ml (levofloxacin alone),2 µg/mL
same,Antibiotic (levofloxacin) MIC in the presence of EPI,[1]; EPI 1.25 μg/ml,2 µg/mL
same,Antibiotic (levofloxacin) MIC in the presence of EPI,[1]; EPI 5 μg/ml,2 µg/mL
same,Antibiotic (levofloxacin) MIC in the presence of EPI,[1]; EPI 10 μg/ml,1 µg/mL
same,Antibiotic (levofloxacin) MIC in the presence of EPI,[1]; EPI 20 μg/ml,0.125 µg/mL
same,Antibiotic (levofloxacin) MIC in the presence of EPI,[1]; EPI 40 μg/ml,0.06 µg/mL
same,Antibiotic (levofloxacin) MIC in the presence of EPI,[1]; EPI 80 μg/ml,0.03 µg/mL
same,Antibiotic (levofloxacin) MIC in the presence of EPI,[1]; EPI […],2 µg/mL
same,MPC8,[1]; EPI concentration necessary to increase susceptibility to levofloxacin eight-fold,20 µg/mL
same,stability in rat serum,[2]; in words,intermediately stable
same,compound left in serum after 1.5 hr of incubation,[2]; rat serum,about half
same,compound left in serum after 4 hr,[2]; rat serum,almost all gone
same,compound left in kidney and liver after the first 40 minutes of incubation,[2]; rat tissue homogenates,Hardly any was left
same,stability in kidney and liver,"[2]; rat tissue homogenates, in words",very unstable
same,serum levels after IV bolus administration,[3],decreased more rapidly
same,tissue levels at 6 hours after IV injection,[4],below the detectable level
CN(C)c1cc(NC(=O)CNC(C)(C)C)c(O)c2c1C[C@H]1C[C@H]3[C@H](N(C)C)C(O)=C(C(N)=O)C(=O)[C@@]3(O)C(O)=C1C2=O [Tigecycline],increase in susceptibility to tigecycline on deleting all four efflux pumps (PAM1626),[5],4 fold
same,MIC,[6],2 ng/mL
same,susceptibility of the test strain to tigecycline,"[7]; PAM1032, tigecycline alone",4 µg/mL
same,MIC,"[7]; Pseudomonas aeruginosa, read-out: Tigecycline MIC in the presence of Compound 21",4 ng/mL
same,MIC,[8],4 ng/mL
same,MIC,[9],4 ng/mL
same,MIC,[10],1 ng/mL
same,MIC,[11],8 ng/mL
same,MIC,[12],2 ng/mL
same,MIC,[13],0.5 ng/mL
same,"MIC50, Tigecycline",[14],2 µg/mL
same,"MIC90, Tigecycline",[14],8 µg/mL
same,Tig (MIC),[15],4 µg/mL
same,Tig (MIC),[16],2 µg/mL
same,Tig (MIC),[17],2 µg/mL
same,Tig (MIC),[18],4 µg/mL
same,Tig (MIC),[19],4 µg/mL
same,MIC,"[20]; Pseudomonas aeruginosa, read-out: Tigecycline MIC, alone",1 µg/mL
same,"Mutation Frequency on Tigecycline at 4 μg/ml, alone","[20]; strain S41, 4× MIC",8.3 × 10^−8
same,50% effective dose of tigecycline alone,[21],greater than 200 mg/kg
same,frequency of emergence of efflux-mediated tigecycline resistance,[22],~4×10^−8
